Laboratory results as given in US9695155B2, “Herbicidal substituted pyrimidinyloxy benzene compounds” (E. I. DU PONT DE NEMOURS AND COMPANY, priority 2013, dated 2017).

Columns and labels:
Experiment in all cases: Test C preemergence
waterhemp = type: in vivo, Amaranthus rudis; conditions: for Waterhemp plant response rating: preemergence; for Plant response rating, Waterhemp: Preemergence, scale 0 to 100, 0 no effect, 100 complete control
Source text: (§1) Seeds of plant species selected from blackgrass (Alopecurus myosuroides), Italian ryegrass (Lolium multiflorum), wheat, winter (winter wheat, Triticum aestivum), galium (catchweed bedstraw, Galium aparine), corn (Zea mays), large (Lg) crabgrass (Digitaria sanguinalis), giant foxtail (Setaria faberii), johnsongrass (Sorghum halepense), lambsquarters (Chenopodium album), morningglory (Ipomoea coccinea), yellow nutsedge (Cyperus esculentus), pigweed (Amaranthus retroflexus), ragweed (common ragweed, Ambrosia elatior), soybean (Glycine max), barnyardgrass (Echinochloa crus-galli), oilseed rape (Brassica napus), waterhemp (common waterhemp, Amaranthus rudis), kochia (Kochia scoparia), wild oat (Avena fatua), surinam grass (Brachiaria decumbens), foxtail, green (green foxtail, Setaria viridis), goosegrass (Eleusine indica), bromegrass, downy (downy bromegrass, Bromus tectorum), nightshade (eastern black nightshade, Solanum ptycanthum), cocklebur (common cocklebur, Xanthium strumarium), cupgrass, woolly (woolly cupgrass, Eriochloa villosa), bermudagrass (Cynodon dactylon), sunflower, (common oilseed sunflower, Helianthus annuus), Russian thistle (Salsola kali), and velvetleaf (Abutilon theophrasti) were planted into a blend of loam soil and sand and treated preemergence with test chemicals formulated in a non-phytotoxic solvent mixture which included a surfactant.
(§2) At the same time, plants selected from these crop and weed species and also barley, winter (winter barley, Hordeum vulgare), windgrass (Apera spica-venti), chickweed (common chickweed, Stellaria media), deadnettle (henbit deadnettle, Lamium amplexicaule), and canarygrass (littleseed canarygrass, Phalaris minor) were planted in pots containing Redi-Earth® planting medium (Scotts Company, 14111 Scottslawn Road, Marysville, Ohio 43041) comprising spaghnum peat moss, vermiculite, wetting agent and starter nutrients and treated with postemergence applications of test chemicals formulated in the same manner. Plants ranged in height from 2 to 18 cm (1- to 4-leaf stage) for postemergence treatments. Treated plants and controls were maintained in a greenhouse for 13 to 15 days, after which time all species were compared to controls and visually evaluated. Plant response ratings, summarized in Table C, are based on a scale of 0 to 100 where 0 is no effect and 100 is complete control. A dash (-) response means no test result.

wheat, winter = type: in vivo, Triticum aestivum; conditions: for Wheat plant response rating: preemergence; for Plant response rating, Wheat: Preemergence, scale 0 to 100, 0 no effect, 100 complete control
Source text: as §1, §2

blackgrass = type: in vivo, Alopecurus myosuroides; conditions: for Blackgrass plant response rating: preemergence; for Plant response rating, Blackgrass: Preemergence, scale 0 to 100, 0 no effect, 100 complete control
Source text: as §1, §2

barnyardgrass = type: in vivo, Echinochloa crus-galli; conditions: for Barnyardgrass plant response rating: preemergence; for Plant response rating, Barnyardgrass: Preemergence, scale 0 to 100, 0 no effect, 100 complete control
Source text: as §1, §2

velvetleaf = type: in vivo, Abutilon theophrasti; conditions: for Velvetleaf plant response rating: preemergence; for Plant response rating, Velvetleaf: Preemergence, scale 0 to 100, 0 no effect, 100 complete control
Source text: as §1, §2

oilseed rape = type: in vivo, Brassica napus; conditions: for Oilseed Rape plant response rating: preemergence; for Plant response rating, Oilseed Rape: Preemergence, scale 0 to 100, 0 no effect, 100 complete control
Source text: as §1, §2

yellow nutsedge = type: in vivo, Cyperus esculentus; conditions: for Nutsedge, Yellow plant response rating: preemergence; for Plant response rating, Nutsedge, Yellow: Preemergence, scale 0 to 100, 0 no effect, 100 complete control
Source text: as §1, §2

giant foxtail = type: in vivo, Setaria faberii; conditions: for Foxtail, Giant plant response rating: preemergence; for Plant response rating, Foxtail, Giant: Preemergence, scale 0 to 100, 0 no effect, 100 complete control
Source text: as §1, §2

pigweed = type: in vivo, Amaranthus retroflexus; conditions: for Pigweed plant response rating: preemergence; for Plant response rating, Pigweed: Preemergence, scale 0 to 100, 0 no effect, 100 complete control
Source text: as §1, §2

ragweed = type: in vivo, Ambrosia elatior; conditions: for Ragweed plant response rating: preemergence; for Plant response rating, Ragweed: Preemergence, scale 0 to 100, 0 no effect, 100 complete control
Source text: as §1, §2

large (Lg) crabgrass = type: in vivo, Digitaria sanguinalis; conditions: for Crabgrass, Large plant response rating: preemergence; for Plant response rating, Crabgrass, Large: Preemergence, scale 0 to 100, 0 no effect, 100 complete control
Source text: as §1, §2

soybean = type: in vivo, Glycine max; conditions: for Soybean plant response rating: preemergence; for Plant response rating, Soybean: Preemergence, scale 0 to 100, 0 no effect, 100 complete control
Source text: as §1, §2

lambsquarters = type: in vivo, Chenopodium album; conditions: for Lambsquarters plant response rating: preemergence; for Plant response rating, Lambsquarters: Preemergence, scale 0 to 100, 0 no effect, 100 complete control
Source text: as §1, §2

[1] = 16 g ai/ha, scale 0 to 100 (0 no effect, 100 complete control)
[2] = 125 g ai/ha, scale 0 (no effect) to 100 (complete control)
[3] = 62 g ai/ha, scale 0 (no effect) to 100 (complete control)
[4] = 250 g ai/ha, scale 0 (no effect) to 100 (complete control)

Cc1cnc(Oc2cccc(C#N)c2-n2cc(C(F)(F)F)cn2)nc1 [Compound 180]
Waterhemp plant response rating (waterhemp; [1]): 90 | Waterhemp plant response rating (waterhemp; [2]): 100 | Plant response rating, Waterhemp (waterhemp; 62 g ai/ha): 100 | Wheat plant response rating (wheat, winter; [1]): 0 | Wheat plant response rating (wheat, winter; [2]): 50 | Plant response rating, Wheat (wheat, winter; 62 g ai/ha): 5 | Blackgrass plant response rating (blackgrass; [1]): 20 | Blackgrass plant response rating (blackgrass; [2]): 90 | Plant response rating, Blackgrass (blackgrass; 62 g ai/ha): 90 | Barnyardgrass plant response rating (barnyardgrass; [1]): 60 | Barnyardgrass plant response rating (barnyardgrass; [2]): 100 | Plant response rating, Barnyardgrass (barnyardgrass; 62 g ai/ha): 100 | Velvetleaf plant response rating (velvetleaf; [1]): 75 | Velvetleaf plant response rating (velvetleaf; [2]): 100 | Plant response rating, Velvetleaf (velvetleaf; 62 g ai/ha): 100 | Oilseed Rape plant response rating (oilseed rape; [1]): 55 | Oilseed Rape plant response rating (oilseed rape; [2]): 100 | Plant response rating, Oilseed Rape (oilseed rape; 62 g ai/ha): 100 | Nutsedge, Yellow plant response rating (yellow nutsedge; [1]): 5 | Nutsedge, Yellow plant response rating (yellow nutsedge; [2]): 85 | Plant response rating, Nutsedge, Yellow (yellow nutsedge; 62 g ai/ha): 65 | Foxtail, Giant plant response rating (giant foxtail; [1]): 90 | Foxtail, Giant plant response rating (giant foxtail; [2]): 100 | Plant response rating, Foxtail, Giant (giant foxtail; 62 g ai/ha): 100 | Pigweed plant response rating (pigweed; [1]): 85 | Pigweed plant response rating (pigweed; [2]): 100 | Plant response rating, Pigweed (pigweed; 62 g ai/ha): 100 | Ragweed plant response rating (ragweed; [1]): 20 | Ragweed plant response rating (ragweed; [2]): 98 | Plant response rating, Ragweed (ragweed; 62 g ai/ha): 80 | Crabgrass, Large plant response rating (large (Lg) crabgrass; [1]): 100 | Crabgrass, Large plant response rating (large (Lg) crabgrass; [2]): 100 | Plant response rating, Crabgrass, Large (large (Lg) crabgrass; 62 g ai/ha): 100 | Soybean plant response rating (soybean; [1]): 90 | Soybean plant response rating (soybean; [2]): 98 | Plant response rating, Soybean (soybean; 62 g ai/ha): 98 | Lambsquarters plant response rating (lambsquarters; [1]): 85 | Lambsquarters plant response rating (lambsquarters; [2]): 100 | Plant response rating, Lambsquarters (lambsquarters; 62 g ai/ha): 100

N#Cc1cccc(Oc2ncc(Cl)cn2)c1-n1cc(OC(F)F)cn1 [Compound 97]
Waterhemp plant response rating (waterhemp; [1]): 100 | Waterhemp plant response rating (waterhemp; [3]): 100 | Waterhemp plant response rating (waterhemp; [2]): 100 | Plant response rating, Waterhemp (waterhemp; 31 g ai/ha): 100 | Wheat plant response rating (wheat, winter; [1]): 0 | Wheat plant response rating (wheat, winter; [3]): 60 | Wheat plant response rating (wheat, winter; [2]): 90 | Plant response rating, Wheat (wheat, winter; 31 g ai/ha): 10 | Blackgrass plant response rating (blackgrass; [1]): 0 | Blackgrass plant response rating (blackgrass; [3]): 90 | Blackgrass plant response rating (blackgrass; [2]): 90 | Plant response rating, Blackgrass (blackgrass; 31 g ai/ha): 70 | Barnyardgrass plant response rating (barnyardgrass; [1]): 35 | Barnyardgrass plant response rating (barnyardgrass; [3]): 100 | Barnyardgrass plant response rating (barnyardgrass; [2]): 100 | Plant response rating, Barnyardgrass (barnyardgrass; 31 g ai/ha): 95 | Velvetleaf plant response rating (velvetleaf; [1]): 40 | Velvetleaf plant response rating (velvetleaf; [3]): 100 | Velvetleaf plant response rating (velvetleaf; [2]): 100 | Plant response rating, Velvetleaf (velvetleaf; 31 g ai/ha): 95 | Oilseed Rape plant response rating (oilseed rape; [1]): 85 | Oilseed Rape plant response rating (oilseed rape; [3]): 98 | Oilseed Rape plant response rating (oilseed rape; [2]): 90 | Plant response rating, Oilseed Rape (oilseed rape; 31 g ai/ha): 85 | Nutsedge, Yellow plant response rating (yellow nutsedge; [1]): 10 | Nutsedge, Yellow plant response rating (yellow nutsedge; [3]): 60 | Nutsedge, Yellow plant response rating (yellow nutsedge; [2]): 90 | Plant response rating, Nutsedge, Yellow (yellow nutsedge; 31 g ai/ha): 20 | Foxtail, Giant plant response rating (giant foxtail; [1]): 60 | Foxtail, Giant plant response rating (giant foxtail; [3]): 100 | Foxtail, Giant plant response rating (giant foxtail; [2]): 100 | Plant response rating, Foxtail, Giant (giant foxtail; 31 g ai/ha): 100 | Pigweed plant response rating (pigweed; [1]): 100 | Pigweed plant response rating (pigweed; [3]): 100 | Pigweed plant response rating (pigweed; [2]): 100 | Plant response rating, Pigweed (pigweed; 31 g ai/ha): 100 | Ragweed plant response rating (ragweed; [1]): 35 | Ragweed plant response rating (ragweed; [3]): 85 | Ragweed plant response rating (ragweed; [2]): 100 | Plant response rating, Ragweed (ragweed; 31 g ai/ha): 35 | Crabgrass, Large plant response rating (large (Lg) crabgrass; [1]): 98 | Crabgrass, Large plant response rating (large (Lg) crabgrass; [3]): 100 | Crabgrass, Large plant response rating (large (Lg) crabgrass; [2]): 100 | Plant response rating, Crabgrass, Large (large (Lg) crabgrass; 31 g ai/ha): 100 | Soybean plant response rating (soybean; [1]): 50 | Soybean plant response rating (soybean; [3]): 95 | Soybean plant response rating (soybean; [2]): 98 | Plant response rating, Soybean (soybean; 31 g ai/ha): 90 | Lambsquarters plant response rating (lambsquarters; [1]): 95 | Lambsquarters plant response rating (lambsquarters; [3]): 100 | Lambsquarters plant response rating (lambsquarters; [2]): 98 | Plant response rating, Lambsquarters (lambsquarters; 31 g ai/ha): 98

N#Cc1cccc(Oc2ncc(Cl)cn2)c1-n1cc(Cl)cn1 [Compound 72]
Waterhemp plant response rating (waterhemp; [3]): 100 | Waterhemp plant response rating (waterhemp; [2]): 100 | Waterhemp plant response rating (waterhemp; [4]): 100 | Plant response rating, Waterhemp (waterhemp; 31 g ai/ha): 100 | Wheat plant response rating (wheat, winter; [3]): 0 | Wheat plant response rating (wheat, winter; [2]): 30 | Wheat plant response rating (wheat, winter; [4]): 35 | Plant response rating, Wheat (wheat, winter; 31 g ai/ha): 0 | Blackgrass plant response rating (blackgrass; [3]): 90 | Blackgrass plant response rating (blackgrass; [2]): 90 | Blackgrass plant response rating (blackgrass; [4]): 95 | Plant response rating, Blackgrass (blackgrass; 31 g ai/ha): 50 | Barnyardgrass plant response rating (barnyardgrass; [3]): 100 | Barnyardgrass plant response rating (barnyardgrass; [2]): 100 | Barnyardgrass plant response rating (barnyardgrass; [4]): 100 | Plant response rating, Barnyardgrass (barnyardgrass; 31 g ai/ha): 75 | Velvetleaf plant response rating (velvetleaf; [3]): 95 | Velvetleaf plant response rating (velvetleaf; [2]): 100 | Velvetleaf plant response rating (velvetleaf; [4]): 100 | Plant response rating, Velvetleaf (velvetleaf; 31 g ai/ha): 60 | Oilseed Rape plant response rating (oilseed rape; [3]): 100 | Oilseed Rape plant response rating (oilseed rape; [2]): 100 | Oilseed Rape plant response rating (oilseed rape; [4]): 100 | Plant response rating, Oilseed Rape (oilseed rape; 31 g ai/ha): 65 | Nutsedge, Yellow plant response rating (yellow nutsedge; [3]): 0 | Nutsedge, Yellow plant response rating (yellow nutsedge; [2]): 10 | Nutsedge, Yellow plant response rating (yellow nutsedge; [4]): 80 | Plant response rating, Nutsedge, Yellow (yellow nutsedge; 31 g ai/ha): 0 | Foxtail, Giant plant response rating (giant foxtail; [3]): 100 | Foxtail, Giant plant response rating (giant foxtail; [2]): 100 | Foxtail, Giant plant response rating (giant foxtail; [4]): 100 | Plant response rating, Foxtail, Giant (giant foxtail; 31 g ai/ha): 100 | Pigweed plant response rating (pigweed; [3]): 100 | Pigweed plant response rating (pigweed; [2]): 100 | Pigweed plant response rating (pigweed; [4]): 100 | Plant response rating, Pigweed (pigweed; 31 g ai/ha): 100 | Ragweed plant response rating (ragweed; [3]): 75 | Ragweed plant response rating (ragweed; [2]): 85 | Ragweed plant response rating (ragweed; [4]): 95 | Plant response rating, Ragweed (ragweed; 31 g ai/ha): 55 | Crabgrass, Large plant response rating (large (Lg) crabgrass; [3]): 100 | Crabgrass, Large plant response rating (large (Lg) crabgrass; [2]): 100 | Crabgrass, Large plant response rating (large (Lg) crabgrass; [4]): 100 | Plant response rating, Crabgrass, Large (large (Lg) crabgrass; 31 g ai/ha): 100 | Soybean plant response rating (soybean; [3]): 55 | Soybean plant response rating (soybean; [2]): 80 | Soybean plant response rating (soybean; [4]): 85 | Plant response rating, Soybean (soybean; 31 g ai/ha): 40 | Lambsquarters plant response rating (lambsquarters; [3]): 100 | Lambsquarters plant response rating (lambsquarters; [2]): 100 | Lambsquarters plant response rating (lambsquarters; [4]): 100 | Plant response rating, Lambsquarters (lambsquarters; 31 g ai/ha): 98
